Patent US20240116985A1, “STAPLED PEPTIDES AND METHODS THEREOF” (priority 2020, published 2024)
pIC50: −log10 of the molar value.

These compounds were tested against T1, full-length beta-Catenin (Uniprot ID P35222) (Homo sapiens, UniProt P35222) (assay: Fluorescence polarization IC50 (beta-catenin / 5FAM-TCF4 10-53 competition)). Settings: beta-Catenin FP IC50 (nM), fluorescence polarization.
T1 construct: 10 nM full-length beta-Catenin (Uniprot ID P35222)
T1 sequence (P35222 1-781): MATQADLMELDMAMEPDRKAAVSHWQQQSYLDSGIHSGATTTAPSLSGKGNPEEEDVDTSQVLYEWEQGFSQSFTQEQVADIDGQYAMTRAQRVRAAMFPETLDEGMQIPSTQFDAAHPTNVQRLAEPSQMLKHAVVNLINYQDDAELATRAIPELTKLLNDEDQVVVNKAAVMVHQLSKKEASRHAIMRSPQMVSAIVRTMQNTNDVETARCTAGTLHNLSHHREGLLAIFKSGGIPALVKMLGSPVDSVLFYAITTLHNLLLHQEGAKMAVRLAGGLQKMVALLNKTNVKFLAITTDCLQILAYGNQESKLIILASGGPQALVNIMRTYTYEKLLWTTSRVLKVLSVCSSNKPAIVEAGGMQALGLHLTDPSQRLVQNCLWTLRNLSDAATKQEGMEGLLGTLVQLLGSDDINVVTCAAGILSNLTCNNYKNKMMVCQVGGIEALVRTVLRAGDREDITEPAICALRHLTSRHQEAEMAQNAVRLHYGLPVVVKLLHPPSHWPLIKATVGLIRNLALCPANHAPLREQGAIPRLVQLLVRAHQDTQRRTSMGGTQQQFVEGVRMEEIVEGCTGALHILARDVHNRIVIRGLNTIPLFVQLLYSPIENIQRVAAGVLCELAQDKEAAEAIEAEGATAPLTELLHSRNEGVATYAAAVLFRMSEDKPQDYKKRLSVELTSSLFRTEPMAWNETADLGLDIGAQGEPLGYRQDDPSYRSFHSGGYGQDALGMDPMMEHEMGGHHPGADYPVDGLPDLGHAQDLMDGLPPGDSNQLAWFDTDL
Format: binding
With `C[C@@H]1NC(=O)[C@H](C)NC(=O)[C@H](CC(=O)O)NC(=O)[C@H](CC(=O)O)NC(=O)C2(CCCC=CCCCOC(=O)N3CC[C@@](C(=O)N[C@@H](Cc4ccsc4)C(=O)N[C@@H](Cc4csc5ccccc45)C(=O)N[C@@H](Cc4c[nH]cn4)C(N)=O)(C3)NC(=O)[C@H](CCC(N)=O)NC(=O)[C@H](Cc3ccccc3)NC1=O)CCCC=CC[C@]1(CCCN1C(=O)CBr)C(=O)N[C@@H](CC(=O)O)C(=O)N[C@@H](CC(C)(C)C)C(=O)N2` (stereo partly drawn) [I-2285, BrAc-PL3-Asp-Npg-B5-Asp-Asp-Ala-Ala-Phe-Gln-PyrS2-3Thi-BztA-His-NH2] the IC50 was 94 nM.

Same assay, conditions: fluorescence polarization, beta-catenin; read-out: FP EC50
Compound `CCCC[C@@H]1NC(=O)[C@H](CC(=O)O)NC(=O)[C@]2(CC=CCCCC3(CCCC=CCCCOC(=O)N4CC[C@@](C(=O)N[C@@H](Cc5ccccc5Cl)C(=O)N[C@@H](Cc5csc6ccccc56)C(=O)N[C@@H](CC(C)C)C(N)=O)(C4)NC(=O)[C@H](CC(C)C)NC(=O)[C@H](Cc4ccccc4)NC(=O)[C@H](C)NC(=O)[C@H](C)NC(=O)[C@H](CC(=O)O)NC(=O)[C@H](CC(=O)O)NC3=O)NC1=O)CCCN2C(C)=O` (stereo partly drawn) [I-1421, Ac-PL3-Asp-nLeu-B5-Asp-Asp-Ala-Ala-Phe-Leu-PyrS2-2C1F-BztA-Leu-NH2] has a pIC50 of 6.87.

Same assay, conditions: fluorescence polarization; read-out: beta-Catenin FP IC50
Compound `CCCC[C@@H]1NC(=O)[C@H](CC(=O)O)NC(=O)[C@]2(CC=CCCCC3(CCCC=CCCCOC(=O)N4CC[C@@](C(=O)N[C@@H](Cc5ccccc5Cl)C(=O)N[C@@H](Cc5csc6ccccc56)C(=O)N[C@@H](CC(C)C)C(N)=O)(C4)NC(=O)[C@H](CC(C)C)NC(=O)[C@H](Cc4ccccc4)NC(=O)[C@H](C)NC(=O)[C@H](C)NC(=O)[C@H](CC(=O)O)NC(=O)[C@H](CC(=O)O)NC3=O)NC1=O)CCCN2C(C)=O` (stereo partly drawn) [I-1421, Ac-PL3-Asp-nLeu-B5-Asp-Asp-Ala-Ala-Phe-Leu-PyrS2-2C1F-BztA-Leu-NH2] has a pIC50 of 6.87.
Work on `CC(=O)N1CCC[C@]12CC=CCCCC1(CCCC=CCCCOC(=O)N3CC[C@@](C(=O)N[C@@H](Cc4ccccc4)C(=O)N[C@@H](Cc4csc5ccccc45)C(=O)N[C@@H](CC(=O)N4CCOCC4)C(N)=O)(C3)NC(=O)[C@H](CC(C)C)NC(=O)[C@H](Cc3ccccc3)NC(=O)[C@H](C)NC(=O)[C@H](CCCCNC(=O)CCN(C)C)NC(=O)[C@H](CCC(N)=O)NC(=O)[C@H](CC(=O)O)NC1=O)NC(=O)[C@H](CC1CCCCC1)NC(=O)[C@H](CC(N)=O)NC2=O` (stereo partly drawn) [I-2528, Ac-PL3-Asn-Cha-B5-Asp-Gln-[Me2Npr]Lys-Ala-Phe-Leu-PyrS2-Phe-BztA-MorphAsn-NH2] yielded a pIC50 of 6.21.
`CC(=O)N1CCC[C@]12CC=CCCCC1(CCCC=CCCCOC(=O)N3CC[C@@](C(=O)N[C@@H](Cc4ccsc4)C(=O)N[C@@H](Cc4csc5ccccc45)C(=O)N[C@@H](CCC(N)=O)C(N)=O)(C3)NC(=O)[C@H](CC(N)=O)NC(=O)[C@H](Cc3ccccc3)NC(=O)[C@H](CCCCNC(C)C)NC(=O)[C@H](C)NC(=O)[C@H]([C@@H](C)O)NC(=O)[C@H](CC(N)=O)NC1=O)NC(=O)[C@H](CC(C)(C)C)NC(=O)[C@H](CC(=O)O)NC2=O` (stereo partly drawn) [I-2006, Ac-PL3-Asp-Npg-B5-Asn-Thr-Ala-iPrLys-Phe-Asn-PyrS2-3Thi-BztA-Gln-NH2] was tested, and the pIC50 was 6.55.
In the case of `CC(C)C[C@@H]1NC(=O)[C@H](Cc2ccccc2)NC(=O)[C@H](C)NC(=O)[C@H](C)NC(=O)[C@H](CN(CC(=O)O)CC(F)(F)F)NC(=O)[C@H](CC(=O)O)NC(=O)C2(CCCCCCCCOC(=O)N3CC[C@@](C(=O)N[C@@H](Cc4ccsc4)C(=O)N[C@@H](Cc4csc5ccccc45)C(=O)N[C@@H](CCC(N)=O)C(N)=O)(C3)NC1=O)CCCCCCOc1cccc(c1)CC(=O)N[C@@H](CC(=O)O)C(=O)N[C@@H](CC(C)(C)C)C(=O)N2` (stereo partly drawn) [I-2404, PAc3OAllyl-Asp-Npg-B5-Asp-TfeGA-Ala-Ala-Phe-Leu-PyrS2-3Thi-BztA-Gln-NH2], the pIC50 was 6.11.
Work on `CC(=O)N1CCC[C@]12CC=CCCCC1(CCCC=CCCCOC(=O)N3CC[C@@](C(=O)N[C@@H](Cc4ccsc4)C(=O)N[C@@H](Cc4csc5ccccc45)C(=O)N[C@@H](CCC(N)=O)C(=O)NCc4ccccc4)(C3)NC(=O)[C@H](CC(N)=O)NC(=O)[C@H](Cc3ccccc3)NC(=O)[C@H](C)NC(=O)[C@H](C)NC(=O)[C@H](CC(=O)O)NC(=O)[C@H](CC(=O)O)NC1=O)NC(=O)[C@H](CC(C)(C)C)NC(=O)[C@H](CC(=O)O)NC2=O` (stereo partly drawn) [I-1257, Ac-PL3-Asp-Npg-B5-Asp-Asp-Ala-Ala-Phe-Asn-PyrS2-3Thi-BztA-Gln-NHBn] yielded a pIC50 of 7.96.
Compound `CC(C)C[C@@H]1NC(=O)[C@H](Cc2ccccc2)NC(=O)[C@H](C)NC(=O)[C@H](C)NC(=O)[C@H](Cc2cccc(C(=O)O)c2)NC(=O)[C@H](CC(=O)O)NC(=O)C2(CCCC=CCCCOC(=O)N3CC[C@@](C(=O)N[C@@H](Cc4ccccc4Cl)C(=O)N[C@@H](Cc4csc5ccccc45)C(=O)N[C@@H](CCC(N)=O)C(N)=O)(C3)NC1=O)CCCC=CCCC(=O)N1CCCC1C(=O)N[C@@H](CC(=O)O)C(=O)N[C@@H](CC(C)(C)C)C(=O)N2` (stereo partly drawn) [I-1984, ProAm5-Asp-Npg-B5-Asp-3COOHF-Ala-Ala-Phe-Leu-PyrS2-2C1F-BztA-Gln-NH2] has a pIC50 of 6.49.
Compound `CC(=O)N1CCC[C@]12CC=CCCCC1(CCCC=CCCCOC(=O)N3CC[C@@](C(=O)N[C@@H](Cc4ccccc4)C(=O)N[C@@H](Cc4csc5ccccc45)C(=O)N[C@@H](CCC(N)=O)C(N)=O)(C3)NC(=O)[C@H](CC(C)C)NC(=O)[C@H](Cc3ccccc3)NC(=O)[C@H](C)NC(=O)[C@H](CCCCNC(C)C)NC(=O)[C@H](Cc3cccc(C(N)=O)c3)NC(=O)[C@H](CC(=O)O)NC1=O)NC(=O)[C@H](CC1CCCCC1)NC(=O)[C@H](CC(N)=O)NC2=O` (stereo partly drawn) [I-2342, Ac-PL3-Asn-Cha-B5-Asp-3cbmf-iPrLys-Ala-Phe-Leu-PyrS2-Phe-BztA-Gln-NH2] has a pIC50 of 5.56.
Compound `CC(=O)N1CCC[C@]12CC=CCCCC1(CCCC=CCCCOC(=O)N3CC[C@@](C(=O)N[C@@H](Cc4ccsc4)C(=O)N[C@@H](Cc4csc5ccccc45)C(=O)N[C@@H](CCC(N)=O)C(N)=O)(C3)NC(=O)[C@H](Cn3cc(CN4CCNCC4)nn3)NC(=O)[C@H](Cc3ccccc3)NC(=O)[C@H](C)NC(=O)[C@H](C)NC(=O)[C@H](CN(CC(=O)O)CC(F)(F)F)NC(=O)[C@H](CC(=O)O)NC1=O)NC(=O)[C@H](CC(C)(C)C)NC(=O)[C@H](CC(=O)O)NC2=O` (stereo partly drawn) [I-1863, Ac-PL3-Asp-Npg-B5-Asp-TfeGA-Ala-Ala-Phe-[CH2Ppz]TriAzDap-PyrS2-3Thi-BztA-Gln-NH2] has a pIC50 of 8.00.
`CC(=O)N1CCC[C@]12CC=CCCCC1(CCCC=CCCCOC(=O)N3CC[C@@](C(=O)N[C@@H](Cc4cccc(-c5ccccc5)c4)C(=O)N[C@@H](Cc4ccccc4)C(=O)N[C@@H](CCC(N)=O)C(N)=O)(C3)NC(=O)[C@H](CC(C)C)NC(=O)[C@H](Cc3ccccc3)NC(=O)[C@H](C)NC(=O)[C@H](C)NC(=O)[C@H](Cc3cccc(C(=O)O)c3)NC(=O)[C@H](CC(=O)O)NC1=O)NC(=O)[C@H](CC(C)(C)C)NC(=O)[C@H](CC(=O)O)NC2=O` (stereo partly drawn) [I-2214, Ac-PL3-Asp-Npg-B5-Asp-3COOHF-Ala-Ala-Phe-Leu-PyrS2-[Ph]-3SF-Phe-Gln-NH2] was tested, and the pIC50 was 5.73.
Compound `CC(=O)N1CCC[C@]12CC=CCCCC1(CCCC=CCCCOC(=O)N3CC[C@@](C(=O)N[C@@H](Cc4ccsc4)C(=O)N[C@@H](Cc4csc5ccccc45)C(=O)N[C@@H](CCC(N)=O)C(N)=O)(C3)NC(=O)[C@H](CC(C)C)NC(=O)[C@H](Cc3ccccc3)NC(=O)[C@H](C)NC(=O)[C@H](C)NC(=O)[C@H](CCC(=O)S)NC(=O)[C@H](CC(=O)O)NC1=O)NC(=O)[C@H](CC(C)(C)C)NC(=O)[C@H](CC(=O)O)NC2=O` (stereo partly drawn) [I-1948, Ac-PL3-Asp-Npg-B5-Asp-GluSH-Ala-Ala-Phe-Leu-PyrS2-3Thi-BztA-Gln-NH2] has a pIC50 of 5.88.
In the case of `CC(=O)N1CCC[C@]12CC=CCCCC1(CCCC=CCCCOC(=O)N3CC[C@@](C(=O)N[C@@H](Cc4ccsc4)C(=O)N[C@@H](Cc4csc5ccccc45)C(=O)N[C@@H](CCC(N)=O)C(N)=O)(C3)NC(=O)[C@H](CC(C)C)NC(=O)[C@H](Cc3cccc(C(=O)O)c3)NC(=O)[C@H](C)NC(=O)[C@H](C)NC(=O)[C@H](Cc3c[nH]c4ccccc34)NC(=O)[C@H](CC(=O)O)NC1=O)NC(=O)[C@H](CC(C)(C)C)NC(=O)[C@H](CC(=O)O)NC2=O` (stereo partly drawn) [I-2129, Ac-PL3-Asp-Npg-B5-Asp-Trp-Ala-Ala-3COOHF-Leu-PyrS2-3Thi-BztA-Gln-NH2], the pIC50 was 6.98.
